Laboratory results from ChEMBL document CHEMBL4480418, “Antibacterial activity of indolyl-quinolinium derivatives and study their mode of action” (Bioorg Med Chem, 2019).
Values after ≈ are worked out from the molar mass of the structure shown.

Key:
Format in all cases: functional
Staphylococcus aureus [1] = assay: Antimicrobial activity against methicillin-resistant Staphylococcus aureus ATCC 43300 measured after 18 hrs by broth microdilution method; conditions: ATCC 43300, 18 h
Enterococcus faecalis = assay: Antimicrobial activity against Enterococcus faecalis ATCC 29212 measured after 18 hrs by broth microdilution method; conditions: ATCC 29212, 18 h
Enterococcus faecium [2] = assay: Antimicrobial activity against vancomycin-resistant Enterococcus faecium ATCC 700221 measured after 18 hrs by broth microdilution method; conditions: ATCC 700221, 18 h
Staphylococcus aureus [3] = assay: Antimicrobial activity against penicillin-resistant Staphylococcus aureus ATCC 29213 measured after 18 hrs by broth microdilution method; conditions: ATCC 29213, 18 h
Staphylococcus aureus [4] = assay: Antimicrobial activity against Staphylococcus aureus ATCC 25923 measured after 18 hrs by broth microdilution method; conditions: ATCC 25923, 18 h
Acinetobacter baumannii = assay: Antimicrobial activity against multidrug-resistant Acinetobacter baumannii ATCC 19606 measured after 18 hrs by broth microdilution method; conditions: ATCC 19606 = CIP 70.34 = JCM 6841, 18 h
Enterobacter cloacae = assay: Antimicrobial activity against Ampc beta-lactamase expressing Enterobacter cloacae ATCC BAA-1143 measured after 18 hrs by broth microdilution method; conditions: ATCC BAA-1143, 18 h
Enterococcus faecium [5] = assay: Antimicrobial activity against drug-susceptible Enterococcus faecium ATCC 49624 measured after 18 hrs by broth microdilution method; conditions: ATCC 49624, 18 h
Klebsiella pneumoniae = assay: Antimicrobial activity against NDM1 beta-lactamase expressing Klebsiella pneumoniae ATCC BAA-2470 measured after 18 hrs by broth microdilution method; conditions: ATCC BAA-2470, 18 h
Pseudomonas aeruginosa = assay: Antimicrobial activity against multidrug-resistant Pseudomonas aeruginosa ATCC BAA-2108 measured after 18 hrs by broth microdilution method; conditions: ATCC BAA-2108, 18 h
Bacillus subtilis = assay: Antibacterial activity against Bacillus subtilis 168 measured after 18 hrs by broth microdilution method; conditions: subsp. subtilis str. 168, 18 h
Staphylococcus aureus [6] = assay: Antimicrobial activity against methicillin-resistant Staphylococcus aureus ATCC BAA-41 measured after 18 hrs by broth microdilution method; conditions: ATCC BAA-41, 18 h
Escherichia coli [7] = assay: Antimicrobial activity against NDM1 beta -lactamse expressing Escherichia coli ATCC BAA-2469 measured after 18 hrs by broth microdilution method; conditions: ATCC BAA-2469, 18 h
Escherichia coli [8] = assay: Antimicrobial activity against Escherichia coli ATCC 25922 measured after 18 hrs by broth microdilution method; conditions: ATCC 25922, 18 h
Staphylococcus aureus [9] = assay: Antimicrobial activity against penicillin-resistant Staphylococcus aureus ATCC 29213 assessed as ratio of MIC after and before 15 serial passages preincubated followed by replating and measured after 24 hrs

CCN(CC)CCNc1cc(/C=C/c2cc3ccccc3[nH]2)[n+](C)c2ccccc12.[I-]
MIC (Staphylococcus aureus [1]): 64 µg/mL
MIC (Enterococcus faecalis): 64 µg/mL
MIC (Enterococcus faecium [2]): 64 µg/mL
MIC (Staphylococcus aureus [3]): 16 µg/mL
MIC (Staphylococcus aureus [4]): 16 µg/mL
MIC (Acinetobacter baumannii): > 64 µg/mL
MIC (Enterobacter cloacae): > 64 µg/mL
MIC (Enterococcus faecium [5]): 32 µg/mL
MIC (Klebsiella pneumoniae): > 64 µg/mL
MIC (Pseudomonas aeruginosa): > 64 µg/mL
MIC (Bacillus subtilis): 16 µg/mL
MIC (Staphylococcus aureus [6]): 32 µg/mL
MIC (Escherichia coli [7]): 64 µg/mL
MIC (Escherichia coli [8]): 64 µg/mL

CCn1cc(C(=O)O)c(=O)c2cc(F)c(N3CCNCC3)cc21 [NORFLOXACIN]
Ratio (Staphylococcus aureus [9]): 500

CC1CCN(c2cc(/C=C/c3cc4ccccc4[nH]3)[n+](C)c3ccccc23)CC1.[I-]
MIC (Staphylococcus aureus [1]): 8 µg/mL
MIC (Enterococcus faecalis): 8 µg/mL
MIC (Enterococcus faecium [2]): 8 µg/mL
MIC (Staphylococcus aureus [3]): 4 µg/mL
MIC (Staphylococcus aureus [4]): 4 µg/mL
MIC (Acinetobacter baumannii): > 64 µg/mL
MIC (Enterobacter cloacae): > 64 µg/mL
MIC (Enterococcus faecium [5]): 4 µg/mL
MIC (Klebsiella pneumoniae): > 64 µg/mL
MIC (Pseudomonas aeruginosa): > 64 µg/mL
MIC (Bacillus subtilis): 8 µg/mL
MIC (Staphylococcus aureus [6]): 8 µg/mL
MIC (Escherichia coli [7]): 32 µg/mL
MIC (Escherichia coli [8]): 32 µg/mL

C[n+]1c(/C=C/c2cc3ccccc3[nH]2)ccc2ccccc21.[I-]
MIC (Staphylococcus aureus [1]): 64 µg/mL
MIC (Enterococcus faecalis): 32 µg/mL
MIC (Enterococcus faecium [2]): 64 µg/mL
MIC (Staphylococcus aureus [3]): 32 µg/mL
MIC (Staphylococcus aureus [4]): 32 µg/mL
MIC (Acinetobacter baumannii): > 64 µg/mL
MIC (Enterobacter cloacae): > 64 µg/mL
MIC (Enterococcus faecium [5]): 32 µg/mL
MIC (Klebsiella pneumoniae): > 64 µg/mL
MIC (Pseudomonas aeruginosa): > 64 µg/mL
MIC (Bacillus subtilis): 32 µg/mL
MIC (Staphylococcus aureus [6]): 32 µg/mL
MIC (Escherichia coli [7]): 64 µg/mL
MIC (Escherichia coli [8]): 64 µg/mL

O=C(O)c1cn(C2CC2)c2cc(N3CCNCC3)c(F)cc2c1=O [CIPROFLOXACIN]
MIC (Staphylococcus aureus [1]): 2 µg/mL (≈ 6.04 µM)
MIC (Enterococcus faecalis): 4 µg/mL (≈ 12.1 µM)
MIC (Enterococcus faecium [2]): > 64 µg/mL
MIC (Staphylococcus aureus [3]): 2 µg/mL (≈ 6.04 µM)
MIC (Staphylococcus aureus [4]): < 0.125 µg/mL
MIC (Acinetobacter baumannii): 2 µg/mL (≈ 6.04 µM)
MIC (Enterococcus faecium [5]): 32 µg/mL (≈ 96.6 µM)
MIC (Klebsiella pneumoniae): 64 µg/mL (≈ 193 µM)
MIC (Pseudomonas aeruginosa): 64 µg/mL (≈ 193 µM)
MIC (Bacillus subtilis): 2 µg/mL (≈ 6.04 µM)
MIC (Staphylococcus aureus [6]): > 64 µg/mL
MIC (Escherichia coli [7]): > 64 µg/mL
MIC (Escherichia coli [8]): < 0.125 µg/mL

C[n+]1c(/C=C/c2c[nH]c3ccccc23)cc(NCCN2CCOCC2)c2ccccc21.[I-]
MIC (Staphylococcus aureus [1]): 64 µg/mL
MIC (Enterococcus faecalis): 64 µg/mL
MIC (Enterococcus faecium [2]): 64 µg/mL
MIC (Staphylococcus aureus [3]): 32 µg/mL
MIC (Staphylococcus aureus [4]): 64 µg/mL
MIC (Acinetobacter baumannii): > 64 µg/mL
MIC (Enterobacter cloacae): > 64 µg/mL
MIC (Enterococcus faecium [5]): 32 µg/mL
MIC (Klebsiella pneumoniae): > 64 µg/mL
MIC (Pseudomonas aeruginosa): > 64 µg/mL
MIC (Bacillus subtilis): 64 µg/mL
MIC (Staphylococcus aureus [6]): 64 µg/mL
MIC (Escherichia coli [7]): > 64 µg/mL
MIC (Escherichia coli [8]): > 64 µg/mL

C[n+]1c(/C=C/c2cc3ccccc3[nH]2)cc(N2CCOCC2)c2ccccc21.[I-]
MIC (Staphylococcus aureus [1]): 16 µg/mL
MIC (Enterococcus faecalis): 64 µg/mL
MIC (Enterococcus faecium [2]): 32 µg/mL
MIC (Staphylococcus aureus [3]): 16 µg/mL
MIC (Staphylococcus aureus [4]): 16 µg/mL
MIC (Acinetobacter baumannii): > 64 µg/mL
MIC (Enterobacter cloacae): > 64 µg/mL
MIC (Enterococcus faecium [5]): 16 µg/mL
MIC (Klebsiella pneumoniae): > 64 µg/mL
MIC (Pseudomonas aeruginosa): > 64 µg/mL
MIC (Bacillus subtilis): 8 µg/mL
MIC (Staphylococcus aureus [6]): 16 µg/mL
MIC (Escherichia coli [7]): 64 µg/mL
MIC (Escherichia coli [8]): 64 µg/mL

CC1(C)S[C@@H]2[C@H](NC(=O)Cc3ccccc3)C(=O)N2[C@H]1C(=O)O [PENICILLIN G]
MIC (Staphylococcus aureus [1]): > 64 µg/mL
MIC (Enterococcus faecalis): 0.5 µg/mL (≈ 1.5 µM)
MIC (Enterococcus faecium [2]): > 64 µg/mL
MIC (Staphylococcus aureus [3]): > 64 µg/mL
MIC (Staphylococcus aureus [4]): < 0.125 µg/mL
MIC (Acinetobacter baumannii): 64 µg/mL (≈ 191 µM)
MIC (Enterobacter cloacae): > 64 µg/mL
MIC (Enterococcus faecium [5]): 0.25 µg/mL (≈ 0.748 µM)
MIC (Klebsiella pneumoniae): > 64 µg/mL
MIC (Pseudomonas aeruginosa): > 64 µg/mL
MIC (Bacillus subtilis): 32 µg/mL (≈ 95.7 µM)
MIC (Staphylococcus aureus [6]): > 64 µg/mL
MIC (Escherichia coli [7]): > 64 µg/mL
MIC (Escherichia coli [8]): 1 µg/mL (≈ 2.99 µM)

C[n+]1c(/C=C/c2c[nH]c3ccccc23)cc(N2CCOCC2)c2ccccc21.[I-]
MIC (Staphylococcus aureus [1]): 32 µg/mL
MIC (Enterococcus faecalis): 16 µg/mL
MIC (Enterococcus faecium [2]): 32 µg/mL
MIC (Staphylococcus aureus [3]): 16 µg/mL
MIC (Staphylococcus aureus [4]): 16 µg/mL
MIC (Acinetobacter baumannii): > 64 µg/mL
MIC (Enterobacter cloacae): > 64 µg/mL
MIC (Enterococcus faecium [5]): 16 µg/mL
MIC (Klebsiella pneumoniae): > 64 µg/mL
MIC (Pseudomonas aeruginosa): > 64 µg/mL
MIC (Bacillus subtilis): 16 µg/mL
MIC (Staphylococcus aureus [6]): 32 µg/mL
MIC (Escherichia coli [7]): > 64 µg/mL
MIC (Escherichia coli [8]): 64 µg/mL

C[n+]1c(/C=C/c2c[nH]c3ccccc23)cc(N2CCCC2)c2ccccc21.[I-]
MIC (Staphylococcus aureus [1]): 16 µg/mL
MIC (Enterococcus faecalis): 16 µg/mL
MIC (Enterococcus faecium [2]): 8 µg/mL
MIC (Staphylococcus aureus [3]): 2 µg/mL
MIC (Staphylococcus aureus [4]): 4 µg/mL
MIC (Acinetobacter baumannii): 64 µg/mL
MIC (Enterobacter cloacae): > 64 µg/mL
MIC (Enterococcus faecium [5]): 4 µg/mL
MIC (Klebsiella pneumoniae): > 64 µg/mL
MIC (Pseudomonas aeruginosa): > 64 µg/mL
MIC (Bacillus subtilis): 8 µg/mL
MIC (Staphylococcus aureus [6]): 4 µg/mL
MIC (Escherichia coli [7]): 32 µg/mL
MIC (Escherichia coli [8]): 32 µg/mL

C[n+]1c(/C=C/c2cc3ccccc3[nH]2)cc(N2CCCC2)c2ccccc21.[I-]
MIC (Staphylococcus aureus [1]): 8 µg/mL
MIC (Enterococcus faecalis): 16 µg/mL
MIC (Enterococcus faecium [2]): 16 µg/mL
MIC (Staphylococcus aureus [3]): 2 µg/mL
MIC (Staphylococcus aureus [4]): 4 µg/mL
MIC (Acinetobacter baumannii): 64 µg/mL
MIC (Enterobacter cloacae): > 64 µg/mL
MIC (Enterococcus faecium [5]): 8 µg/mL
MIC (Klebsiella pneumoniae): > 64 µg/mL
MIC (Pseudomonas aeruginosa): > 64 µg/mL
MIC (Bacillus subtilis): 8 µg/mL
MIC (Staphylococcus aureus [6]): 8 µg/mL
MIC (Escherichia coli [7]): 32 µg/mL
MIC (Escherichia coli [8]): 32 µg/mL

C[n+]1c(/C=C/c2cc3ccccc3[nH]2)cc(NCCN2CCCCC2)c2ccccc21.[I-]
MIC (Staphylococcus aureus [1]): 32 µg/mL
MIC (Enterococcus faecalis): 64 µg/mL
MIC (Enterococcus faecium [2]): 32 µg/mL
MIC (Staphylococcus aureus [3]): 16 µg/mL
MIC (Staphylococcus aureus [4]): 16 µg/mL
MIC (Acinetobacter baumannii): 64 µg/mL
MIC (Enterobacter cloacae): > 64 µg/mL
MIC (Enterococcus faecium [5]): 16 µg/mL
MIC (Klebsiella pneumoniae): > 64 µg/mL
MIC (Pseudomonas aeruginosa): > 64 µg/mL
MIC (Bacillus subtilis): 16 µg/mL
MIC (Staphylococcus aureus [6]): 32 µg/mL
MIC (Escherichia coli [7]): 64 µg/mL
MIC (Escherichia coli [8]): 32 µg/mL

CCN(CC)CCNc1cc(/C=C/c2c[nH]c3ccccc23)[n+](C)c2ccccc12.[I-]
MIC (Staphylococcus aureus [1]): 32 µg/mL
MIC (Enterococcus faecalis): 64 µg/mL
MIC (Enterococcus faecium [2]): 64 µg/mL
MIC (Staphylococcus aureus [3]): 16 µg/mL
MIC (Staphylococcus aureus [4]): 16 µg/mL
MIC (Acinetobacter baumannii): > 64 µg/mL
MIC (Enterobacter cloacae): > 64 µg/mL
MIC (Enterococcus faecium [5]): 32 µg/mL
MIC (Klebsiella pneumoniae): > 64 µg/mL
MIC (Pseudomonas aeruginosa): > 64 µg/mL
MIC (Bacillus subtilis): 16 µg/mL
MIC (Staphylococcus aureus [6]): 32 µg/mL
MIC (Escherichia coli [7]): 64 µg/mL
MIC (Escherichia coli [8]): 64 µg/mL

C[n+]1c(/C=C/c2c[nH]c3ccccc23)cc(NCCN2CCCC2)c2ccccc21.[I-]
MIC (Staphylococcus aureus [1]): 64 µg/mL
MIC (Enterococcus faecalis): 64 µg/mL
MIC (Enterococcus faecium [2]): 64 µg/mL
MIC (Staphylococcus aureus [3]): 16 µg/mL
MIC (Staphylococcus aureus [4]): 16 µg/mL
MIC (Acinetobacter baumannii): > 64 µg/mL
MIC (Enterobacter cloacae): > 64 µg/mL
MIC (Enterococcus faecium [5]): 32 µg/mL
MIC (Klebsiella pneumoniae): > 64 µg/mL
MIC (Pseudomonas aeruginosa): > 64 µg/mL
MIC (Bacillus subtilis): 32 µg/mL
MIC (Staphylococcus aureus [6]): 64 µg/mL
MIC (Escherichia coli [7]): 64 µg/mL
MIC (Escherichia coli [8]): 64 µg/mL

C[n+]1c(/C=C/c2c[nH]c3ccccc23)ccc2ccccc21.[I-]
MIC (Staphylococcus aureus [1]): 32 µg/mL
MIC (Enterococcus faecalis): 32 µg/mL
MIC (Enterococcus faecium [2]): 64 µg/mL
MIC (Staphylococcus aureus [3]): 32 µg/mL
MIC (Staphylococcus aureus [4]): 32 µg/mL
MIC (Acinetobacter baumannii): > 64 µg/mL
MIC (Enterobacter cloacae): > 64 µg/mL
MIC (Enterococcus faecium [5]): 32 µg/mL
MIC (Klebsiella pneumoniae): > 64 µg/mL
MIC (Pseudomonas aeruginosa): > 64 µg/mL
MIC (Bacillus subtilis): 32 µg/mL
MIC (Staphylococcus aureus [6]): 32 µg/mL
MIC (Escherichia coli [7]): > 64 µg/mL
MIC (Escherichia coli [8]): > 64 µg/mL
